Measurements taken from patent EP0341735A1, “N-acetyl-3-fluoroneuraminic acid as antiviral drug” (priority 1988, dated 1989).

How the values were obtained:
Female ICR mice = assay: Acute toxicity test by intravenous injection; type: in vivo; details: for Number of deaths: Intravenous injection, 10 mice per level, observation period 14 days
Description: The acute toxicity test of Compound 1 was conducted by an intravenous injection in female mice.
Animals used: Female ICR mice (6 week old) Medicine concentration: 13 to 15 W/V % in distilled water Number of mice for each level: 10 Observation period: 14 days.

[1] = system: sialidase produced by Arthrobacter ureaffacients; assay: Sialidase inhibition, 4-MU-NeuAc fluorescence assay; type: biochemical, Arthrobacter ureafaciens; details: for Inhibition rate / NeuAc released: substrate 4-MU-NeuAc, pH 4.2, 37 °C, 15 min
Description: (§1) 100 µ ℓ of a 0.5 mM solution of 4-methylumbelliferyl-N-acetylneuraminic acid (4-MU-NeuAc) (a product of Nakarai Kagaku Co., Ltd) of the following formula: [drawing 15]
(§2) 100 µ ℓ of a 200 mM sodium acetate buffer (pH 4.2) and 100 µ ℓ of N-acetyl-3-fluoroneuraminic acid (compound 1) 4 to 400 µM were added to an enzyme solution ([…]) (10 mU/ml) of sialidase (a product of Nakarai Kagaku Co., Ltd.) product from Arthrobacter ureafaciens in a test tube, and the reaction was conducted in a water bath at 37 °C for 15 min. Then, 3.6 ml of a 200 mM glycine/NaOH buffer (pH 10.4) was added to the reaction mixture in the test tube to terminate the reaction. the concentration of 4-methylumbelliferone formed in the reaction solution was determined from its fluorescence intensity at an excitation wave length of 360 nm and an emission wave length of 440 nm with a fluorescence spectrophotometer (a product of Hitachi, Ltd.). The amount of free sialic acid was determined from this value.
(§3) The sialidase inhibition rate was determined according to the following formula: [formula]

[2] = target: sialidase produced by Vibrio colerae (Vibrio cholerae serotype O1, UniProt P0C6E9); assay: as above; type: biochemical; details: same procedure as Example 1
Chain of sialidase produced by Vibrio colerae (P0C6E9 25-781): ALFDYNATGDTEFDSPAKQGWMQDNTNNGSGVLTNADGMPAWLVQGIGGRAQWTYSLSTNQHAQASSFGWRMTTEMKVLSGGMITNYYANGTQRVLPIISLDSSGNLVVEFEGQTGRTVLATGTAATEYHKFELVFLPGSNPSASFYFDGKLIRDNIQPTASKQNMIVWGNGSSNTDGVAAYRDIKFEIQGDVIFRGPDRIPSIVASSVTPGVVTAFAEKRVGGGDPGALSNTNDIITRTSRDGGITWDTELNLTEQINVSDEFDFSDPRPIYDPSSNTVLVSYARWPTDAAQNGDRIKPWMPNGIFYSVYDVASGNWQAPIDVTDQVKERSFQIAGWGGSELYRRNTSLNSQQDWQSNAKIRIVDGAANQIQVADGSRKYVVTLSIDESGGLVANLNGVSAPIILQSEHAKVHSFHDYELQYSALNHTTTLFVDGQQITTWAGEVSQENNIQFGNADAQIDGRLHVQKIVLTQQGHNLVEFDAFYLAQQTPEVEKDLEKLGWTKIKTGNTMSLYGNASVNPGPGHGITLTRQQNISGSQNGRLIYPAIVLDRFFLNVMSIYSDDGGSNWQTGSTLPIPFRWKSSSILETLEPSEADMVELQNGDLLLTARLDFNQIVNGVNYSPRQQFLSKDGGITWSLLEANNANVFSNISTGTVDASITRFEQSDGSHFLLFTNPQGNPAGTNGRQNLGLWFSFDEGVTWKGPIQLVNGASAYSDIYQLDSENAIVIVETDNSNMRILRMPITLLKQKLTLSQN
Description: as §1, §2, §3
(§4) The same procedure as that of Example 1 was repeated except that sialidases produced by Vibrio colerae and Streptococcus sp. were used, and then the inhibition rate of Compound 1 was determined.

[3] = system: sialidase produced by Streptococcus sp.; assay: as above; type: biochemical; details: same procedure as Example 1
Description: as §1, §2, §3, §4

For CC(=O)N[C@H]1[C@H]([C@H](O)[C@H](O)CO)OC(O)(C(=O)O)C(F)[C@@H]1O (stereo partly drawn) [Compound 1, N-acetyl-3-fluoroneuraminic acid], the Number of deaths (Female ICR mice; dose 200 mg) was 0, the Number of deaths (Female ICR mice; dose 400 mg) was 0 and the Number of deaths (Female ICR mice; dose 600 mg) was 0. For the same compound, the “toxicity (in words)” value (Female ICR mice; conclusion from Table 4) was “quite low”, the Inhibition rate ([1]; Compound 1 at 0.001 mM) was 14.3% and the NeuAc released ([1]; Compound 1 at 0.001 mM) was 23.0 n mol. For the same compound, the Inhibition rate ([1]; Compound 1 at 0.01 mM) was 48.9%, the NeuAc released ([1]; Compound 1 at 0.01 mM) was 14.0 n mol and the Inhibition rate ([1]; Compound 1 at 0.1 mM) was 82.0%. For the same compound, the NeuAc released ([1]; Compound 1 at 0.1 mM) was 4.9 n mol, the “inhibition pattern (Dixon plot)” value ([1]; Fig. 1, two different substrate concentrations) was “competitive with the substrate” and the “activity of sialidase (inhibition, in words)” value ([1]; conclusion from Table 1) was “remarkably inhibits”. For the same compound, the NeuAc released ([2]; Compound 1 at 0.001 mM) was 5.9 n mol, the inhibition at 1 µM ([2]; Compound 1 at 0.001 mM, read-out: Inhibition rate) was -0.2% and the NeuAc released ([2]; Compound 1 at 0.01 mM) was 5.3 n mol. For the same compound, the inhibition at 10 µM ([2]; Compound 1 at 0.01 mM, read-out: Inhibition rate) was 8.4%, the NeuAc released ([2]; Compound 1 at 0.1 mM) was 2.8 n mol and the inhibition at 100 µM ([2]; Compound 1 at 0.1 mM, read-out: Inhibition rate) was 52.7%. The Inhibition rate ([3]; Compound 1 at 0.001 mM) was 7.4%, the NeuAc released ([3]; Compound 1 at 0.001 mM) was 10.5 n mol and the Inhibition rate ([3]; Compound 1 at 0.01 mM) was 24.6%. It also gave a NeuAc released ([3]; Compound 1 at 0.01 mM) of 8.5 n mol, an Inhibition rate ([3]; Compound 1 at 0.1 mM) of 75.4% and a NeuAc released ([3]; Compound 1 at 0.1 mM) of 2.8 n mol.
